PubChem BioAssay (NCI)
Values joined by “and” are separate entries in the source; they are usually repeats but may differ in a detail not shown here. Equal entries are not always repeated.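 Grown in 96-well plates, cells were treated for 48 hours with each compound at five concentrations. Insufficient inhibition: endpoint recorded as highest concentration tested. Abbreviation: GI50, concentration required for 50% inhibition of growth. TGI: total growth inhibition.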

Tests used:
Experiment in all cases: NCI anticancer screen, dose series, 48 h
CCRF-CEM leukemia = system: CCRF-CEM leukemia
OVCAR-4 ovarian = system: OVCAR-4 ovarian
NCI-H522 lung = system: NCI-H522 lung
HL-60(TB) leukemia = system: HL-60(TB) leukemia
SF-539 CNS = system: SF-539 CNS
MDA-N = system: MDA-N
OVCAR-8 ovarian = system: OVCAR-8 ovarian
EKVX NSCLC = system: EKVX NSCLC
NCI/ADR-RES ovarian = system: NCI/ADR-RES ovarian
HCT-15 colon = system: HCT-15 colon

Compound | TGI (CCRF-CEM leukemia) | TGI (OVCAR-4 ovarian) | TGI (NCI-H522 lung) | TGI (HL-60(TB) leukemia) | TGI (SF-539 CNS) | TGI (MDA-N) | TGI (OVCAR-8 ovarian) | TGI (EKVX NSCLC) | TGI (NCI/ADR-RES ovarian) | TGI (HCT-15 colon) | GI50 (CCRF-CEM leukemia) | GI50 (OVCAR-4 ovarian) | GI50 (NCI/ADR-RES ovarian) | GI50 (OVCAR-8 ovarian) | GI50 (NCI-H522 lung) | GI50 (HL-60(TB) leukemia) | GI50 (SF-539 CNS) | GI50 (HCT-15 colon)
COC1CCC(CO)OO1 (stereo not given) | > 100 µM | > 100 µM | 27.4 µM | 58 µM | > 100 µM |  |  |  |  |  |  |  |  |  |  |  |  | 
O=C1OC2(CCCCC2)C(Oc2ccc(Cl)cc2)=C1F | 86.1 µM |  | 95.9 µM | 62.8 µM | > 100 µM | > 100 µM | > 100 µM | > 100 µM |  |  |  |  |  |  |  |  |  | 
CNCC(SC)c1ccc(O)c(O)c1 (stereo not given) | 7.33 µM | 32.5 µM | 34.5 µM | 37.5 µM |  | 38.1 µM | 41.4 µM | 37.1 µM | > 100 µM | > 100 µM |  |  |  |  |  |  |  | 
COc1ccc(C2C3=C(COC3=O)Oc3cc4c(cc32)OCO4)cc1OC (stereo not given) | > 32.4 µM | > 100 µM | 2.19 µM | 0.804 µM | 2.31 µM | 0.639 µM | > 43.3 µM | > 38 µM | 7.7 µM | > 100 µM |  |  |  |  |  |  |  | 
COC(=O)c1c(CC(=O)OC(C)C)cc2n(c1=O)Cc1c-2nc2ccccc2c1OC | > 100 µM | > 100 µM | > 100 µM | > 100 µM |  |  | > 100 µM | > 100 µM |  | > 100 µM |  |  |  |  |  |  |  | 
CN1Cc2ccccc2C2(COc3ccccc3C2=O)C1 (stereo not given) | > 100 µM | > 100 µM | > 100 µM | > 100 µM | > 100 µM |  | > 100 µM | > 100 µM |  | > 100 µM |  |  |  |  |  |  |  | 
C[C@H](CCc1nc(C#N)c(N)o1)[C@H]1CC[C@H]2[C@@H]3CCC4C[C@@H](O)CC[C@]4(C)[C@H]3C[C@@H](O)[C@]12C (stereo not given in full) | 0.445 µM | 4.92 µM | 16.2 µM | 2.38 µM | 27.6 µM | 30.9 µM | 20.3 µM | 27.8 µM | 25 µM | 29.5 µM |  |  |  |  |  |  |  | 
N/C(=N\N=C/c1c(O)cc(O)cc1O)NO | > 92.6 µM | > 100 µM | > 100 µM | > 76.9 µM | > 100 µM |  | > 100 µM | > 94.5 µM | > 100 µM | > 100 µM |  |  |  |  |  |  |  | 
CC1(C)Cc2ccccc2C(C)(Cl)C(=O)N1 (stereo not given) | > 10 µM | > 10 µM |  | > 10 µM | > 10 µM | > 10 µM | > 10 µM | > 10 µM | > 10 µM | > 10 µM |  |  |  |  |  |  |  | 
C[C@]12CC[C@H]3[C@@H](CC=C4C[C@@H](O)CC[C@@]43C)[C@@H]1C/C(=C\c1ccc([N+](=O)[O-])cc1)[C@@H]2O | > 100 µM | 3.7 µM | 32.7 µM | 80.9 µM | 34.5 µM |  | 36.9 µM | 26.5 µM | 48.4 µM | > 100 µM |  |  |  |  |  |  |  | 
Cc1cc(NS(=O)(=O)c2ccc(Nc3c4ccccc4nc4c(C(=O)NC(CO)(CO)CO)cccc34)cc2)no1 | 66.3 µM | > 100 µM | 34.4 µM | > 100 µM |  | > 100 µM | > 100 µM | > 100 µM | > 100 µM | > 100 µM |  |  |  |  |  |  |  | 
CC(=O)N1CCOC12N=NC(C)(C)O2 (stereo not given) |  | > 100 µM | > 100 µM |  | > 100 µM | > 100 µM | > 100 µM | > 100 µM | > 100 µM | > 100 µM |  |  |  |  |  |  |  | 
CC(C)=CCNc1ncnc2c1ncn2CCC(=O)O | > 100 µM | > 100 µM | > 100 µM | > 100 µM | > 100 µM | > 100 µM | > 100 µM |  | > 100 µM | > 100 µM |  |  |  |  |  |  |  | 
COc1ccc(/C=C/C(=O)c2cc(CN(C)C)c(O)c(CN(C)C)c2)cc1 | > 100 µM |  | 43.2 µM | 54.5 µM | > 100 µM | 67.1 µM | > 100 µM | > 100 µM | > 100 µM | > 100 µM |  |  |  |  |  |  |  | 
NCCCNCCSP(=O)(O)O | > 750 µM | > 750 µM | 738 µM | > 721 µM | > 750 µM |  | > 511 µM | > 750 µM | > 750 µM | > 645 µM |  |  |  |  |  |  |  | 
C#CC(O)/C=C/C(O)CCCC(O)CC#CC(O)C#CCCCCC(O)/C=C/CCCC(=O)CCCCCCCCCCCCCCCC(O)C(O)C#CC(=O)O (stereo not given) | > 25 µM | > 25 µM | 17.1 µM | > 25 µM |  | > 25 µM | > 25 µM | > 25 µM | > 25 µM | > 25 µM |  |  |  |  |  |  |  | 
C/C(N=NS(=O)(=O)c1c(C)cc(C)cc1C)=C1\C=CC=CN1O | > 100 µM | > 100 µM | > 100 µM | > 100 µM | > 100 µM |  | > 100 µM | > 100 µM |  | > 100 µM |  |  |  |  |  |  |  | 
COc1ccc(-c2c(/C=N/OCC(=O)O)c3sc4ccccc4n3c2/C=N/OCC(=O)O)cc1 | > 50 µM | > 50 µM | > 50 µM |  |  | > 50 µM | > 50 µM | > 50 µM | > 50 µM | > 50 µM |  |  |  |  |  |  |  | 
CCOC(=O)C1=C(N2CCCC2)C(=O)C(C(=O)OCC)C1 (stereo not given) |  | > 100 µM | > 100 µM |  | > 100 µM | > 100 µM | > 100 µM | > 100 µM | > 100 µM | > 100 µM |  |  |  |  |  |  |  | 
CSCCC(NC(=O)C(Cc1c[nH]c2ccccc12)NC(=O)CCNC(=O)OC(C)(C)C)C(=O)NC(CC(=O)O)C(=O)NC(Cc1ccccc1)C(N)=O (stereo not given) | > 50 µM |  | > 50 µM | > 50 µM | > 50 µM | > 50 µM |  | > 50 µM | > 50 µM |  |  |  |  |  |  |  |  | 
Cc1cc2ccccc2n2c1nc1ccc(O)cc12 | > 10 µM | > 10 µM | > 10 µM | > 10 µM | > 10 µM |  | > 10 µM | > 10 µM | > 10 µM | > 10 µM |  |  |  |  |  |  |  | 
CC(C)=CC(=O)OC1C2C(C)=CC(=O)C(O)C2(C)C2C3(O)OCC24C(CC(=O)OC14)C(C)C3O (stereo not given) | 0.109 µM and 0.177 µM and 0.253 µM |  | 0.011 µM and 0.0215 µM |  | 0.0132 µM and 0.0415 µM | 0.00481 µM | 0.125 µM and 0.0247 µM and 0.0683 µM |  |  | 0.212 µM and 0.853 µM and 0.687 µM | 20 nM | 20 nM | 6.65 µM and 2.24 µM | 25.1 nM | 20 nM | 20 nM | 20 nM | 57.9 nM and 54.1 nM
C=C1c2nc3ccccc3n2C=C(c2ccccc2)N1c1ccc(C)cc1 | > 100 µM | > 100 µM | > 100 µM |  | > 100 µM |  | > 100 µM | > 100 µM | > 100 µM | > 100 µM |  |  |  |  |  |  |  | 
C/C(=N\Nc1nc2cc(F)ccc2s1)c1ccccn1 | > 100 µM | 3.32 µM | 2.62 µM |  | > 23.4 µM |  | 1.79 µM |  | 0.12 µM | 2.12 µM |  |  |  |  |  |  |  | 
